Data as given in patent US10947289B2, “Glyco-modified atrial natriuretic peptide” (priority 2013, dated 2021).

What follows are compounds tested against T1, human GC-A (Homo sapiens, UniProt P16066) (assay: cGMP elevating activity in CHO/human GC-A cells (Test Example 1)).
T1 construct: expressed in transfected cells; host or cells: CHO cells
T1 sequence (P16066 33-1061): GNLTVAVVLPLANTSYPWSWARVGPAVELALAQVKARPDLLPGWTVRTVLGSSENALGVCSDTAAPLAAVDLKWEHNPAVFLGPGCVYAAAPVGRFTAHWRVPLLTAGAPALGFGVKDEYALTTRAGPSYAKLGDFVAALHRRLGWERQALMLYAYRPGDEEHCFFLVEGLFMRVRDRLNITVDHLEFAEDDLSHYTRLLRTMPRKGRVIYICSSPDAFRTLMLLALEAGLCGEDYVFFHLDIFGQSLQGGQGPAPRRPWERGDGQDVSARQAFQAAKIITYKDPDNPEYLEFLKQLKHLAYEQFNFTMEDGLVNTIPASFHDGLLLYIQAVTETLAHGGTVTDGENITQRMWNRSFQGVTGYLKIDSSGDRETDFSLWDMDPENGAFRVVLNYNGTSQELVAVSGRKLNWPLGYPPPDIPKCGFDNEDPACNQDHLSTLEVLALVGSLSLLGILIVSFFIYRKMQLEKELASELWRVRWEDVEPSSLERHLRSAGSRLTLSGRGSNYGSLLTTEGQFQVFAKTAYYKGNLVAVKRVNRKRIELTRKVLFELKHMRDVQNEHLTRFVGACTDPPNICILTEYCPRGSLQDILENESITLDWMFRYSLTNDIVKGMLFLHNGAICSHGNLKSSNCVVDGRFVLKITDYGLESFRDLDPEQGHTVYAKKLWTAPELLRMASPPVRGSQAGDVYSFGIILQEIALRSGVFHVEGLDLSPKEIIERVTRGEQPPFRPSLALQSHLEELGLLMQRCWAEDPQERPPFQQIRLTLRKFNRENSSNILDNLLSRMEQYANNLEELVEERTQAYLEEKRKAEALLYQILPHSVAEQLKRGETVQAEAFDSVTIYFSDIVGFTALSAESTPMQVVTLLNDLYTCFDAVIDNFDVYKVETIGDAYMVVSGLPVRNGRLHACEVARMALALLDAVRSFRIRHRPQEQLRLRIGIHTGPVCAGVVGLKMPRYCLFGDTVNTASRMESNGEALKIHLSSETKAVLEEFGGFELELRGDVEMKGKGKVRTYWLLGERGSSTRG
Assay type: cell-based
Description: The cGMP elevating activity of each modified peptide prepared in Example 2 was measured by the following method:
CHO/human GC-A cells, which are CHO cells constitutively expressing human GC-A, were suspended at 2×10^5 cells/ml in α-MEM, 10% FBS, and 1% penicillin-streptomycin, inoculated at 20 μl/well (4×10^3 cells/well) onto a 384-well plate (Corning, 3826), and cultured overnight in a CO2 incubator. On the next day, the medium was removed from this plate, and then, 1.6 mM IBMX/KRB buffer was added thereto at 10 μl/well. The mixture was stirred on a plate shaker and then incubated at room temperature for 10 minutes. […] The mixture was stirred on a plate shaker and then incubated for 15 minutes in a CO2 incubator. Thereafter, a lysis buffer (50 mM phosphate buffer, pH 7.0, and 1% Triton X-100) was added thereto at 5 μl/well. The cells were lysed by stirring for 10 minutes on a plate shaker. Subsequently, the cGMP levels in the cell lysates were measured by use of a cGMP kit (manufactured by Cisbio Bioassays). Specifically, to a 384-well plate (Greiner, 784076), 5 μl/well of a diluent attached to the kit, 5 μl/well of the cell lysate, 5 μl/well of cGMP-d2, and 5 μl/well of anti cGMP-Cryptate were added. The mixture was stirred on a plate shaker and then incubated overnight at 4° C. in the dark, followed by the measurement of homogeneous time-resolved fluorescence using RubyStar (manufactured by BMG LABTECH JAPAN Ltd.). The activity value (T/C) of the test substance at each concentration was calculated when the activity value of a well supplemented with only a solvent was defined as 0 and the activity value of a well supplemented with 1 nM ANP was defined as 1.

Row | Structure (SMILES) | EC50 [nM]
1 | CC[C@H](C)[C@@H]1NC(=O)[C@H](CCCNC(=N)N)NC(=O)[C@H](CC(=O)O)NC(=O)[C@H](CCSC)NC(=O)[C@H](CCCNC(=N)N)NC(=O)CNC(=O)CNC(=O)[C@H](Cc2ccccc2)NC(=O)[C@@H](NC(=O)[C@H](CO)NC(=O)[C@H](CO)NC(=O)[C@H](CCCNC(=N)N)NC(=O)[C@H](CCCNC(=N)N)NC(=O)[C@H](CC(C)C)NC(=O)[C@@H](N)CC(=O)N[C@@H]2O[C@H](CO)[C@@H](O[C@@H]3O[C@H](CO)[C@@H](O[C@@H]4O[C@H](CO[C@H]5O[C@H](CO)[C@@H](O)[C@H](O)[C@@H]5O[C@@H]5O[C@H](CO)[C@@H](O[C@@H]6O[C@H](CO[C@]7(C(=O)O)C[C@H](O)[C@@H](NC(C)=O)[C@H]([C@H](O)[C@H](O)CO)O7)[C@H](O)[C@H](O)[C@H]6O)[C@H](O)[C@H]5NC(C)=O)[C@@H](O)[C@H](O[C@H]5O[C@H](CO)[C@@H](O)[C@H](O)[C@@H]5O[C@@H]5O[C@H](CO)[C@@H](O[C@@H]6O[C@H](CO[C@]7(C(=O)O)C[C@H](O)[C@@H](NC(C)=O)[C@H]([C@H](O)[C@H](O)CO)O7)[C@H](O)[C@H](O)[C@H]6O)[C@H](O)[C@H]5NC(C)=O)[C@@H]4O)[C@H](O)[C@H]3NC(C)=O)[C@H](O)[C@H]2NC(C)=O)CSSC[C@@H](C(=O)N[C@@H](CC(N)=O)C(=O)N[C@@H](CO)C(=O)N[C@@H](Cc2ccccc2)C(=O)N[C@@H](CCCNC(=N)N)C(=O)N[C@@H](Cc2ccc(O)cc2)C(=O)O)NC(=O)CNC(=O)[C@H](CC(C)C)NC(=O)CNC(=O)[C@H](CO)NC(=O)[C@H](CCC(N)=O)NC(=O)[C@H](C)NC(=O)CNC1=O [Compound 2-4, (SG-)Asn-hANP(2-28)] | 0.08
2 | CC[C@H](C)[C@@H]1NC(=O)[C@H](CCCNC(=N)N)NC(=O)[C@H](CC(=O)O)NC(=O)[C@H](CCSC)NC(=O)[C@H](CCCNC(=N)N)NC(=O)CNC(=O)CNC(=O)[C@H](Cc2ccccc2)NC(=O)[C@@H](NC(=O)[C@H](CO)NC(=O)[C@H](CO)NC(=O)[C@H](CCCNC(=N)N)NC(=O)[C@H](CCCNC(=N)N)NC(=O)[C@H](CC(C)C)NC(=O)[C@H](CO)NC(=O)CNC(=O)[C@H](CO)NC(=O)CNC(=O)[C@H](CO)NC(=O)CNC(=O)[C@H](CO)NC(=O)[C@H](CC(=O)N[C@@H]2O[C@H](CO)[C@@H](O[C@@H]3O[C@H](CO)[C@@H](O[C@@H]4O[C@H](CO[C@H]5O[C@H](CO)[C@@H](O)[C@H](O)[C@@H]5O[C@@H]5O[C@H](CO)[C@@H](O[C@@H]6O[C@H](CO[C@]7(C(=O)O)C[C@H](O)[C@@H](NC(C)=O)[C@H]([C@H](O)[C@H](O)CO)O7)[C@H](O)[C@H](O)[C@H]6O)[C@H](O)[C@H]5NC(C)=O)[C@@H](O)[C@H](O[C@H]5O[C@H](CO)[C@@H](O)[C@H](O)[C@@H]5O[C@@H]5O[C@H](CO)[C@@H](O[C@@H]6O[C@H](CO[C@]7(C(=O)O)C[C@H](O)[C@@H](NC(C)=O)[C@H]([C@H](O)[C@H](O)CO)O7)[C@H](O)[C@H](O)[C@H]6O)[C@H](O)[C@H]5NC(C)=O)[C@@H]4O)[C@H](O)[C@H]3NC(C)=O)[C@H](O)[C@H]2NC(C)=O)NC(=O)CO[C@@H]2O[C@H](CO)[C@@H](O[C@@H]3O[C@H](CO)[C@@H](O[C@@H]4O[C@H](CO[C@H]5O[C@H](CO)[C@@H](O)[C@H](O)[C@@H]5O[C@@H]5O[C@H](CO)[C@@H](O[C@@H]6O[C@H](CO[C@]7(C(=O)O)C[C@H](O)[C@@H](NC(C)=O)[C@H]([C@H](O)[C@H](O)CO)O7)[C@H](O)[C@H](O)[C@H]6O)[C@H](O)[C@H]5NC(C)=O)[C@@H](O)[C@H](O[C@H]5O[C@H](CO)[C@@H](O)[C@H](O)[C@@H]5O[C@@H]5O[C@H](CO)[C@@H](O[C@@H]6O[C@H](CO[C@]7(C(=O)O)C[C@H](O)[C@@H](NC(C)=O)[C@H]([C@H](O)[C@H](O)CO)O7)[C@H](O)[C@H](O)[C@H]6O)[C@H](O)[C@H]5NC(C)=O)[C@@H]4O)[C@H](O)[C@H]3NC(C)=O)[C@H](O)[C@H]2NC(C)=O)CSSC[C@@H](C(=O)N[C@@H](CC(N)=O)C(=O)N[C@@H](CO)C(=O)N[C@@H](Cc2ccccc2)C(=O)N[C@@H](CCCNC(=N)N)C(=O)N[C@@H](Cc2ccc(O)cc2)C(=O)O)NC(=O)CNC(=O)[C@H](CC(C)C)NC(=O)CNC(=O)[C@H](CO)NC(=O)[C@H](CCC(N)=O)NC(=O)[C@H](C)NC(=O)CNC1=O [Compound 2-36, SG-(SG-)Asn-(Ser-Gly)3-hANP(1-28)] | 0.39
3 | CC[C@H](C)[C@@H]1NC(=O)[C@H](CCCNC(=N)N)NC(=O)[C@H](CC(=O)O)NC(=O)[C@H](CCSC)NC(=O)[C@H](CCCNC(=N)N)NC(=O)CNC(=O)CNC(=O)[C@H](Cc2ccccc2)NC(=O)[C@@H](NC(=O)[C@H](CO)NC(=O)[C@H](CO)NC(=O)[C@H](CCCNC(=N)N)NC(=O)[C@H](CCCNC(=N)N)NC(=O)[C@H](CC(C)C)NC(=O)[C@H](CO)NC(=O)CCOCCOCCOCCOCCNC(=O)[C@H](CC(=O)N[C@@H]2O[C@H](CO)[C@@H](O[C@@H]3O[C@H](CO)[C@@H](O[C@@H]4O[C@H](CO[C@H]5O[C@H](CO)[C@@H](O)[C@H](O)[C@@H]5O[C@@H]5O[C@H](CO)[C@@H](O)[C@H](O)[C@H]5NC(C)=O)[C@@H](O)[C@H](O[C@H]5O[C@H](CO)[C@@H](O)[C@H](O)[C@@H]5O[C@@H]5O[C@H](CO)[C@@H](O)[C@H](O)[C@H]5NC(C)=O)[C@@H]4O)[C@H](O)[C@H]3NC(C)=O)[C@H](O)[C@H]2NC(C)=O)NC(=O)CO[C@@H]2O[C@H](CO)[C@@H](O[C@@H]3O[C@H](CO)[C@@H](O[C@@H]4O[C@H](CO[C@H]5O[C@H](CO)[C@@H](O)[C@H](O)[C@@H]5O[C@@H]5O[C@H](CO)[C@@H](O)[C@H](O)[C@H]5NC(C)=O)[C@@H](O)[C@H](O[C@H]5O[C@H](CO)[C@@H](O)[C@H](O)[C@@H]5O[C@@H]5O[C@H](CO)[C@@H](O)[C@H](O)[C@H]5NC(C)=O)[C@@H]4O)[C@H](O)[C@H]3NC(C)=O)[C@H](O)[C@H]2NC(C)=O)CSSC[C@@H](C(=O)N[C@@H](CC(N)=O)C(=O)N[C@@H](CO)C(=O)N[C@@H](Cc2ccccc2)C(=O)N[C@@H](CCCNC(=N)N)C(=O)N[C@@H](Cc2ccc(O)cc2)C(=O)O)NC(=O)CNC(=O)[C@H](CC(C)C)NC(=O)CNC(=O)[C@H](CO)NC(=O)[C@H](CCC(N)=O)NC(=O)[C@H](C)NC(=O)CNC1=O [Compound 2-22, AG(7)-(AG(7)-)Asn-PEG(3)-hANP(1-28)] | 0.08
